Results taken from ChEMBL document CHEMBL4138079, “New cycloartane type-triterpenoids from the areal parts of Caragana sukiensis and their biological activities” (Eur J Med Chem, 2017).
Active and inactive are the calls of the source. No cut-off for these calls is given here.

How the values were obtained:
A549 [1] = assay: Induction of apoptosis in human A549 cells assessed as late apoptotic cells at 2 uM after 48 hrs by Annexin V-FITC/propidium iodide staining based flow cytometry (reference value: 5.19%); type: functional
A549 [2] = assay: Induction of apoptosis in human A549 cells assessed as cell population with intact mitochondrial membrane potential at 1 uM measured after 48 hrs by JC-1 staining based flow cytometry (reference value: 37.5%); type: functional
A549 [3] = assay: Cell cycle arrest in human A549 cells assessed as sub G1 phase accumulation at 2 uM after 48 hrs by propidium iodide staining based FACS analysis (reference value: 0.96%); type: functional
A549 [4] = assay: Cell cycle arrest in human A549 cells assessed as G2/M phase accumulation at 1 uM after 48 hrs by propidium iodide staining based FACS analysis (reference value: 16.81%); type: functional
A549 [5] = assay: Induction of apoptosis in human A549 cells assessed as morphological change at 1 uM after 48 hrs by Hoechst 33258 staining based fluorescence microscopic analysis; type: functional, cell-based
A549 [6] = assay: Induction of apoptosis in human A549 cells assessed as late apoptotic cells at 1 uM after 48 hrs by Annexin V-FITC/propidium iodide staining based flow cytometry (reference value: 5.19%); type: functional
A549 [7] = assay: Induction of apoptosis in human A549 cells assessed as cell population with mitochondrial membrane potential loss at 1 uM measured after 48 hrs by JC-1 staining based flow cytometry (reference value: 27.4%); type: functional
A549 [8] = assay: Cell cycle arrest in human A549 cells assessed as sub G1 phase accumulation at 1 uM after 48 hrs by propidium iodide staining based FACS analysis (reference value: 0.96%); type: functional
HEK293 = assay: Cytotoxicity against human HEK293 cells assessed as reduction in cell viability after 48 hrs by MTT assay; type: cell-based; conditions: HEK293, 48 h
A549 [9] = assay: Induction of apoptosis in human A549 cells assessed as early apoptotic cells at 2 uM after 48 hrs by Annexin V-FITC/propidium iodide staining based flow cytometry (reference value: 3.24%); type: functional
A549 [10] = assay: Induction of apoptosis in human A549 cells assessed as necrotic cells at 1 uM after 48 hrs by Annexin V-FITC/propidium iodide staining based flow cytometry (reference value: 0.35%); type: functional
Spodoptera litura [11] = assay: Antifeedant activity in Spodoptera litura assessed as pupal weight after 24 hrs by leaf disk method (reference value: 0.245 +/- 0.02 g); type: functional
Spodoptera litura [12] = assay: Insecticidal activity in Spodoptera litura third-instar larvae assessed as larval mortality at 5 ug/cm2 after 24 hrs by leaf disk method relative to control; type: functional; conditions: foliar
A549 [13] = assay: Cell cycle arrest in human A549 cells assessed as G2/M phase accumulation at 2 uM after 48 hrs by propidium iodide staining based FACS analysis (reference value: 16.81%); type: functional
DU-145 = assay: Cytotoxicity against human DU145 cells assessed as reduction in cell viability after 48 hrs by MTT assay; type: functional, cell-based; conditions: DU-145, 48 h
A549 [14] = assay: Cytotoxicity against human A549 cells assessed as reduction in cell viability after 48 hrs by MTT assay; type: functional, cell-based; conditions: A549, 48 h
MCF7 = assay: Cytotoxicity against human MCF7 cells assessed as reduction in cell viability after 48 hrs by MTT assay; type: functional, cell-based; conditions: MCF7, 48 h
A549 [15] = assay: Cell cycle arrest in human A549 cells assessed as G0/G1 phase accumulation at 1 uM after 48 hrs by propidium iodide staining based FACS analysis (reference value: 77.91%); type: functional
Spodoptera litura [16] = assay: Antifeedant activity in Spodoptera litura third-instar larvae assessed as increase in feeding deterrence after 24 hrs by leaf disk method; type: functional
A549 [17] = assay: Induction of apoptosis in human A549 cells assessed as early apoptotic cells at 1 uM after 48 hrs by Annexin V-FITC/propidium iodide staining based flow cytometry (reference value: 3.24%); type: functional
A549 [18] = assay: Cell cycle arrest in human A549 cells assessed as S phase accumulation at 2 uM after 48 hrs by propidium iodide staining based FACS analysis (reference value: 2.45%); type: functional
A549 [19] = assay: Induction of apoptosis in human A549 cells assessed as cell population with mitochondrial membrane potential loss at 2 uM measured after 48 hrs by JC-1 staining based flow cytometry (reference value: 27.4%); type: functional
HeLa = assay: Cytotoxicity against human HeLa cells assessed as reduction in cell viability after 48 hrs by MTT assay; type: functional, cell-based
A549 [20] = assay: Cell cycle arrest in human A549 cells assessed as G0/G1 phase accumulation at 2 uM after 48 hrs by propidium iodide staining based FACS analysis (reference value: 77.91%); type: functional
A549 [21] = assay: Induction of apoptosis in human A549 cells after 48 hrs by Annexin V-FITC/propidium iodide staining based flow cytometry; type: functional, cell-based
A549 [22] = assay: Induction of apoptosis in human A549 cells assessed as live cells at 1 uM after 48 hrs by Annexin V-FITC/propidium iodide staining based flow cytometry (reference value: 91.22%); type: functional
A549 [23] = assay: Cell cycle arrest in human A549 cells assessed as G0/G1 phase accumulation after 48 hrs by propidium iodide staining based FACS analysis; type: functional
A549 [24] = assay: Induction of apoptosis in human A549 cells assessed as live cells at 2 uM after 48 hrs by Annexin V-FITC/propidium iodide staining based flow cytometry (reference value: 91.22%); type: functional
Spodoptera litura [25] = assay: Antifeedant activity in Spodoptera litura assessed as pupal mortality after 24 hrs by leaf disk method (reference value: 0%); type: functional
A549 [26] = assay: Induction of apoptosis in human A549 cells assessed as necrotic cells at 2 uM after 48 hrs by Annexin V-FITC/propidium iodide staining based flow cytometry (reference value: 0.35%); type: functional
Spodoptera litura [27] = assay: Antifeedant activity in Spodoptera litura third-instar larvae assessed as larval duration time after 24 hrs by leaf disk method (reference value: 10.1 +/- 0.1 day); type: functional
Spodoptera litura [28] = assay: Antifeedant activity in Spodoptera litura third-instar larvae assessed as increase in feeding deterrence by measuring antifeedant index at 5 ug/cm2 after 24 hrs by leaf disk method; type: functional
A549 [29] = assay: Induction of apoptosis in human A549 cells assessed as cell population with intact mitochondrial membrane potential at 2 uM measured after 48 hrs by JC-1 staining based flow cytometry (reference value: 37.5%); type: functional
A549 [30] = assay: Cell cycle arrest in human A549 cells assessed as S phase accumulation at 1 uM after 48 hrs by propidium iodide staining based FACS analysis (reference value: 2.45%); type: functional

**Q.** Which Activity (A549 [1]) does the source give for `CC(C)(O)[C@@H]1CC[C@](C)([C@H]2[C@@H](O)C[C@@]3(C)[C@@H]4C[C@H](O)[C@H]5C(C)(C)[C@@H](O)CC[C@@]56C[C@@]46CC[C@]23C)O1` here?
**A.** Its Activity is 23.83%.

**Q.** And the Activity (A549 [2])?
**A.** The Activity was 39.6%.

**Q.** What about the Activity (A549 [3]) of the same compound?
**A.** The Activity was 0.84%.

**Q.** What about the Activity (A549 [4]) of the same compound?
**A.** The Activity was 14.45%.

**Q.** And the Activity (A549 [5])?
**A.** The Activity was “Active”.

**Q.** What about the Activity (A549 [6]) of the same compound?
**A.** Its Activity is 11.31%.

**Q.** What about the Activity (A549 [7]) of the same compound?
**A.** Its Activity is 29%.

**Q.** And the Activity (A549 [8])?
**A.** Its Activity is 0.4%.

**Q.** What about the IC50 (HEK293) of the same compound?
**A.** The IC50 was 128000 nM.

**Q.** And the Activity (A549 [9])?
**A.** The Activity was 3.94%.

**Q.** And the Activity (A549 [10])?
**A.** The Activity was 0.96%.

**Q.** What about the Activity (Spodoptera litura [11]) of the same compound?
**A.** The Activity was 0.199 g.

**Q.** And the mortality at 5 µg/cm2 (Spodoptera litura [12])?
**A.** The mortality at 5 µg/cm2 was 11.8%.

**Q.** What about the Activity (A549 [13]) of the same compound?
**A.** Its Activity is 7.29%.

**Q.** What about the IC50 (DU-145) of the same compound?
**A.** Its IC50 is 7260 nM.

**Q.** And the IC50 (A549 [14])?
**A.** The IC50 was 1540 nM.

**Q.** What about the IC50 (MCF7) of the same compound?
**A.** The IC50 was 1780 nM.

**Q.** What about the Activity (A549 [15]) of the same compound?
**A.** The Activity was 82.05%.

**Q.** What about the ED50 (Spodoptera litura [16]) of the same compound?
**A.** The ED50 was 11.96 microg/cm2.

**Q.** And the Activity (A549 [17])?
**A.** The Activity was 4.17%.

**Q.** What about the Activity (A549 [18]) of the same compound?
**A.** The Activity was 0.87%.

**Q.** What about the Activity (A549 [19]) of the same compound?
**A.** The Activity was 31.1%.

**Q.** What about the IC50 (HeLa) of the same compound?
**A.** Its IC50 is 2200 nM.

**Q.** What about the Activity (A549 [20]) of the same compound?
**A.** The Activity was 90.47%.

**Q.** What about the Activity (A549 [21]) of the same compound?
**A.** Its Activity is “Dose-dependent effect”.

**Q.** And the Activity (A549 [22])?
**A.** Its Activity is 83.55%.

**Q.** What about the Activity (A549 [23]) of the same compound?
**A.** Its Activity is “Dose-dependent effect”.

**Q.** And the Activity (A549 [24])?
**A.** The Activity was 71.07%.

**Q.** And the mortality (Spodoptera litura [25])?
**A.** The mortality was 89.6%.

**Q.** And the Activity (A549 [26])?
**A.** Its Activity is 1.16%.

**Q.** What about the Time (Spodoptera litura [27]) of the same compound?
**A.** Its Time is 14.2 days.

**Q.** What about the Activity_index (Spodoptera litura [28]) of the same compound?
**A.** Its Activity_index is 59.9.

**Q.** And the Activity (A549 [29])?
**A.** Its Activity is 38.6%.

**Q.** What about the Activity (A549 [30]) of the same compound?
**A.** Its Activity is 2.41%.
